The text below walks through data of PMC3129046, “Engineering Laccases: In Search for Novel Catalysts” (Current Genomics, 2011).

For this test, the target named is T1, LAC3 (Trametes sp. C30, UniProt Q6TH77).
T1 construct: lac3 cDNA in pYES-DEST52 under GAL1 promoter, secreted by Saccharomyces cerevisiae W303-1A; 501 aa, calc
T1 sequence (Q6TH77 24-524): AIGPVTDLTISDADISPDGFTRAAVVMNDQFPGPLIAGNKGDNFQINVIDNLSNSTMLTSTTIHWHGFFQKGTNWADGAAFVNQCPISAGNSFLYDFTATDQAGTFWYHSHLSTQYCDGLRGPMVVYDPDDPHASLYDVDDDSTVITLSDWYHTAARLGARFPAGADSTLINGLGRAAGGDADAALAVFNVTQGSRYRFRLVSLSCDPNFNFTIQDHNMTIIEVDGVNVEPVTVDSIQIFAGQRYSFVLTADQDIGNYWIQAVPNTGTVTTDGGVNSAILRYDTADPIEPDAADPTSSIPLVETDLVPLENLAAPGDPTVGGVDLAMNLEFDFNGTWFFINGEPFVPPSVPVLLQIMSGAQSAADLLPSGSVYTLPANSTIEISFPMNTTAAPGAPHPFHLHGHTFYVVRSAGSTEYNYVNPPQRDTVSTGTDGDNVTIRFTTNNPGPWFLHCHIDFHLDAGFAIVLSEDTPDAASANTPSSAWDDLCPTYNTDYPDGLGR
Kind of test: brown halo on agar plate. Type of test: cell-based. The settings on record: secreted recombinant enzyme, selective medium SGal URA.

Consider `COc1ccccc1O` [2-methoxyphenol], for which the “brown halo on agar plate” value is “brown coloration resulting from the oxidation of the substrate 2-methoxyphenol by laccases”.
